According to PubChem BioAssay (NCI):
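Protocol summary: plate cells (96-well), add compound at 5 concentrations, incubate 48 h, interpolate endpoints linearly. Abbreviation: GI50, concentration required for 50% inhibition of growth. TGI denotes the concentration required for complete inhibition of growth.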

Tested on: KM12 colon
Test: NCI-60 cell line screen, 48 h

SMILES	TGI	GI50
COc1cccc(CCNC(=O)Cc2ccccc2CCO)c1	> 100 µM	–
CCOC(=O)C1=CN(C)C=C(C(=O)OCC)C1c1cc(Br)c(OCC)c(OC)c1	> 100 µM	35 µM
N#Cc1c(N)nc(N2CCOCC2)c(C#N)c1-c1ccncc1	> 100 µM	> 100 µM

Tested on: HCC-2998 colon
Test: NCI-60 cell line screen, 48 h

SMILES	GI50	TGI
CSC1=Nc2c(c(C)c(C)n2COC(CO)CO)C2=NC(=O)C(C)N12 (configuration not stated)	> 100 µM	> 100 µM
COc1cccc(CCNC(=O)Cc2ccccc2CCO)c1	–	> 100 µM
CCOC(=O)C1=CN(C)C=C(C(=O)OCC)C1c1cc(Br)c(OCC)c(OC)c1	> 100 µM	> 100 µM
N#Cc1c(N)nc(N2CCOCC2)c(C#N)c1-c1ccncc1	13.3 µM	64.3 µM

Tested on: DU-145 prostate
Test: NCI-60 cell line screen, 48 h

SMILES	GI50	TGI
CSC1=Nc2c(c(C)c(C)n2COC(CO)CO)C2=NC(=O)C(C)N12 (configuration not stated)	> 100 µM	> 100 µM
COc1cccc(CCNC(=O)Cc2ccccc2CCO)c1	–	> 100 µM
CCOC(=O)C1=CN(C)C=C(C(=O)OCC)C1c1cc(Br)c(OCC)c(OC)c1	> 100 µM	> 100 µM
N#Cc1c(N)nc(N2CCOCC2)c(C#N)c1-c1ccncc1	> 100 µM	> 100 µM

Tested on: NCI-H23 lung
Test: NCI-60 cell line screen, 48 h

SMILES	GI50	TGI
CSC1=Nc2c(c(C)c(C)n2COC(CO)CO)C2=NC(=O)C(C)N12 (configuration not stated)	> 100 µM	> 100 µM
COc1cccc(CCNC(=O)Cc2ccccc2CCO)c1	–	> 100 µM
CCOC(=O)C1=CN(C)C=C(C(=O)OCC)C1c1cc(Br)c(OCC)c(OC)c1	> 100 µM	> 100 µM

Tested on: HS 578T breast
Test: NCI-60 cell line screen, 48 h

SMILES	GI50	TGI
CSC1=Nc2c(c(C)c(C)n2COC(CO)CO)C2=NC(=O)C(C)N12 (configuration not stated)	> 100 µM	> 100 µM
COc1cccc(CCNC(=O)Cc2ccccc2CCO)c1	–	> 100 µM
CCOC(=O)C1=CN(C)C=C(C(=O)OCC)C1c1cc(Br)c(OCC)c(OC)c1	32.6 µM	> 100 µM
N#Cc1c(N)nc(N2CCOCC2)c(C#N)c1-c1ccncc1	38.3 µM	> 100 µM

Tested on: UACC-62 melanoma
Test: NCI-60 cell line screen, 48 h

SMILES	GI50	TGI
CSC1=Nc2c(c(C)c(C)n2COC(CO)CO)C2=NC(=O)C(C)N12 (configuration not stated)	> 100 µM	> 100 µM
COc1cccc(CCNC(=O)Cc2ccccc2CCO)c1	–	> 100 µM
CCOC(=O)C1=CN(C)C=C(C(=O)OCC)C1c1cc(Br)c(OCC)c(OC)c1	69.4 µM	> 100 µM
N#Cc1c(N)nc(N2CCOCC2)c(C#N)c1-c1ccncc1	27 µM	> 100 µM

Tested on: OVCAR-3 ovarian
Test: NCI-60 cell line screen, 48 h

SMILES	GI50	TGI
CSC1=Nc2c(c(C)c(C)n2COC(CO)CO)C2=NC(=O)C(C)N12 (configuration not stated)	> 100 µM	> 100 µM
COc1cccc(CCNC(=O)Cc2ccccc2CCO)c1	–	> 100 µM
CCOC(=O)C1=CN(C)C=C(C(=O)OCC)C1c1cc(Br)c(OCC)c(OC)c1	48 µM	> 100 µM
N#Cc1c(N)nc(N2CCOCC2)c(C#N)c1-c1ccncc1	36.4 µM	> 100 µM

Tested on: SNB-75 CNS
Test: NCI-60 cell line screen, 48 h

SMILES	GI50	TGI
CSC1=Nc2c(c(C)c(C)n2COC(CO)CO)C2=NC(=O)C(C)N12 (configuration not stated)	26.3 µM	> 100 µM
COc1cccc(CCNC(=O)Cc2ccccc2CCO)c1	–	> 100 µM
CCOC(=O)C1=CN(C)C=C(C(=O)OCC)C1c1cc(Br)c(OCC)c(OC)c1	20.8 µM	> 100 µM
N#Cc1c(N)nc(N2CCOCC2)c(C#N)c1-c1ccncc1	41.4 µM	> 100 µM

Tested on: OVCAR-5 ovarian
Test: NCI-60 cell line screen, 48 h

SMILES	GI50	TGI
CSC1=Nc2c(c(C)c(C)n2COC(CO)CO)C2=NC(=O)C(C)N12 (configuration not stated)	> 100 µM	> 100 µM
COc1cccc(CCNC(=O)Cc2ccccc2CCO)c1	–	> 100 µM
CCOC(=O)C1=CN(C)C=C(C(=O)OCC)C1c1cc(Br)c(OCC)c(OC)c1	> 100 µM	> 100 µM
N#Cc1c(N)nc(N2CCOCC2)c(C#N)c1-c1ccncc1	27 µM	> 100 µM

Tested on: RXF 393 renal
Test: NCI-60 cell line screen, 48 h

SMILES	GI50	TGI
CSC1=Nc2c(c(C)c(C)n2COC(CO)CO)C2=NC(=O)C(C)N12 (configuration not stated)	> 100 µM	> 100 µM
COc1cccc(CCNC(=O)Cc2ccccc2CCO)c1	–	> 100 µM
CCOC(=O)C1=CN(C)C=C(C(=O)OCC)C1c1cc(Br)c(OCC)c(OC)c1	8.74 µM	> 100 µM
N#Cc1c(N)nc(N2CCOCC2)c(C#N)c1-c1ccncc1	> 100 µM	> 100 µM

Tested on: SF-295 CNS
Test: NCI-60 cell line screen, 48 h

SMILES	GI50	TGI
CSC1=Nc2c(c(C)c(C)n2COC(CO)CO)C2=NC(=O)C(C)N12 (configuration not stated)	> 100 µM	> 100 µM
COc1cccc(CCNC(=O)Cc2ccccc2CCO)c1	–	> 100 µM
CCOC(=O)C1=CN(C)C=C(C(=O)OCC)C1c1cc(Br)c(OCC)c(OC)c1	41.1 µM	> 100 µM
N#Cc1c(N)nc(N2CCOCC2)c(C#N)c1-c1ccncc1	44.3 µM	> 100 µM

Tested on: SK-MEL-28 melanoma
Test: NCI-60 cell line screen, 48 h

SMILES	GI50	TGI
CSC1=Nc2c(c(C)c(C)n2COC(CO)CO)C2=NC(=O)C(C)N12 (configuration not stated)	> 100 µM	> 100 µM
COc1cccc(CCNC(=O)Cc2ccccc2CCO)c1	–	> 100 µM
CCOC(=O)C1=CN(C)C=C(C(=O)OCC)C1c1cc(Br)c(OCC)c(OC)c1	> 100 µM	> 100 µM
N#Cc1c(N)nc(N2CCOCC2)c(C#N)c1-c1ccncc1	> 100 µM	> 100 µM

Tested on: SR leukemia
Test: NCI-60 cell line screen, 48 h

SMILES	GI50	TGI
CSC1=Nc2c(c(C)c(C)n2COC(CO)CO)C2=NC(=O)C(C)N12 (configuration not stated)	2.48 µM	> 100 µM
COc1cccc(CCNC(=O)Cc2ccccc2CCO)c1	–	> 100 µM
CCOC(=O)C1=CN(C)C=C(C(=O)OCC)C1c1cc(Br)c(OCC)c(OC)c1	> 100 µM	> 100 µM

Tested on: U251 CNS
Test: NCI-60 cell line screen, 48 h

SMILES	GI50	TGI
CSC1=Nc2c(c(C)c(C)n2COC(CO)CO)C2=NC(=O)C(C)N12 (configuration not stated)	> 100 µM	> 100 µM
COc1cccc(CCNC(=O)Cc2ccccc2CCO)c1	–	> 100 µM
CCOC(=O)C1=CN(C)C=C(C(=O)OCC)C1c1cc(Br)c(OCC)c(OC)c1	> 100 µM	> 100 µM
N#Cc1c(N)nc(N2CCOCC2)c(C#N)c1-c1ccncc1	> 100 µM	> 100 µM

Tested on: SF-539 CNS
Test: NCI-60 cell line screen, 48 h

SMILES	GI50	TGI
CSC1=Nc2c(c(C)c(C)n2COC(CO)CO)C2=NC(=O)C(C)N12 (configuration not stated)	> 100 µM	> 100 µM
COc1cccc(CCNC(=O)Cc2ccccc2CCO)c1	–	> 100 µM
CCOC(=O)C1=CN(C)C=C(C(=O)OCC)C1c1cc(Br)c(OCC)c(OC)c1	> 100 µM	> 100 µM
